Laboratory results taken from paper PMC9496346, “Controversial Role of Transferrin in the Transport of Ruthenium Anticancer Drugs” (Biomolecules, 2022).

System: T1, recombinant human transferrin receptor 1 (TfR1)
T1 construct: extracellular domain (Cyst89-Phe760), (His)6-tagged at the N-terminus; purchased Sino Biological, Beijing, China (TfR1); Sigma (human serum, Cat. No. H4522, as source of Tf) 11020-H07H
Test: BLI of Tf–TfR1 binding in dilute human serum pre-treated with metal complexes
Conditions: serum incubated with 100 μM Ru complex or 60 μM Fe(III) as citrate
Experimental: The effects of Ru complexes on the Tf cycle were determined by BLI using previously developed protocols. The instrument used was a single-channel BLItz analyser (ForteBio, Menlo Park, CA, USA) with a tube holder (250 µL solution volume) and Ni(II)–nta coated optical probes held at 295 ± 1 K. Measurements used the Advanced Kinetics mode. […] Solutions of metal–Tf adducts (typical final Tf concentrations 150 nM or 1.0 µM) were prepared in the binding buffer (Section 2.1). The pH 7.4 binding buffer was used for Tf binding and dissociation from the probe, and the pH 5.6 buffer (Section 2.1) was used to mimic the endosomal step of the Tf cycle. Metal–Tf solutions (A1–A9 in Table 1) were diluted 100–400-fold, cell culture media were diluted 30-fold, and human serum samples were diluted 200-fold with the binding buffer immediately before the BLI measurements. All BLI data were background corrected by using data from buffer only runs with the same TfR1-loaded optical probe. Consistent BLI results were obtained in at least two independent measurements, using different probes and different batches of Tf solutions. Calculations of the Tf–TfR1 binding constants were performed using the 1:1 binding model (BLItz software, Version 1.1, Forte-Bio 2013), which can be used as a reasonable approximation of the physiological 2:2 Tf–TfR1 binding mechanism at low Tf concentrations. […]
(b) BLI response curves for dilute human serum samples in the presence or absence of metal complexes. Intact commercial human serum (Sigma H4522) was incubated with Fe(III)-citrate (60 µM) or with Ru complexes (100 µM) for 4 h at 310 K, then diluted 200-fold (to [Tf] ~ 150 nM) with the binding buffer (20 mM HEPES, 25 mM NaHCO3, 140 mM NaCl, pH = 7.4), and analyzed with the TfR1-loaded BLI probe. Designations of the steps in Tf cycle (A–D) correspond to those in Figure 1d-f, main text. Calculated KD values (1:1 binding model, BLItz software) were as follows: 8.0 nM (serum + Fe(III) citrate); or 28 ± 2 nM (serum in the presence or absence of Ru complexes). Typical anticancer Ru complexes, NAMI-A, KP1019 and RAPTA-C, were synthesized and characterized previously in the Lay group.
(1 picture or pasted object on this page, not shown here)

## [Cl-].[Cl-].[Cl-].[Cl-].[Ru+3].c1ccc2[nH][nH+]cc2c1.c1ccc2[nH]ncc2c1.c1ccc2[nH]ncc2c1 [KP1019, (IndH)[Ru^IIICl4(Ind)2]]
  Effect on Tf–TfR1 binding in whole human serum: did not have any effect
